Values of other authors in patent US6811791B2, “Method and concentrated composition for insect and animal control” (priority 2001, dated 2004).

Conditions: classified by the EPA

## CNC(=O)CSP(=S)(OC)OC [Dimethoate, dimethoate]
  EPA carcinogen classification: group 3 carcinogen
